Values after ≈ are worked out from the molar mass of the structure shown.
Columns and labels:
L. monocytogenes 149 = test: MIC for reduction of preformed biofilm (crystal violet staining); assay type: cell-based, Listeria monocytogenes; conditions: for MICBR80: ≥80% reduction of preformed biofilm (18 h), 20 h with substance
Procedure: (§1) Ten concentrations of NAC, RLs, and UA were tested to determine the minimum inhibitory concentration for planktonic growth, and subsequently, the six highest concentrations were applied on preformed biofilms to evaluate the biofilm eradication ability of the compounds. MIC was defined as the lowest substance concentration able to inhibit at least 80% of microbial growth (MICPC80 for planktonic cells, MICBC80 for further growth of biofilm cells), inhibit 80% of metabolic activity (MICBM80 for biofilm metabolic activity, MICMPB80 for metabolic activity of preformed biofilm), prevent biofilm formation by at least 80% (MICBF80 for biofilm formation), or reduce a preformed biofilm by at least 80% (MICBR80 for biofilm reduction). The results of MICs are summarized in Table 1 (planktonic cells) and Table 2 (biofilm-associated cells).
(§2) The determination of MICs was performed according to Chlumsky et al.. Briefly, 96-well flat-bottomed microtiter plates were inoculated with 75 µL (for biofilm formation) or 100 µL (for preformed biofilm) of bacterial suspension (A625nm 0.08 to 0.1) in technical triplicates and were then carefully mixed with the dilution series of the test substances (24 h cultivation at 25 °C for S. Infantis, 37 °C for other strains) or were directly cultivated to preform biofilms (18 h). For a positive control of bacterial growth, the inoculum was mixed with a pure sterile medium. Furthermore, the sterile medium was included in the plate as a marker of potential microbial contamination. To evaluate planktonic cells growth (MICPC80) and further growth of biofilm cells (MICBC80), the optical density of the content of the microtiter plates was measured spectrophotometrically at 625 nm before and after 24 h (for biofilm formation) of cultivation or before and after additional 20 h incubation with the tested compound (for preformed biofilm). The difference of A625nm was considered as a measure of the ability of cells to grow in the presence of the tested substances. To evaluate the inhibition of biofilm formation (MICBF80) and reduction in preformed biofilms (MICBR80), biomass was quantified using crystal violet staining, and its metabolic activity (MICBM80 and MICMPB80) was estimated by using the MTT (thiazyl tetrazolium bromide, Sigma-Aldrich, USA) reduction assay, both measured spectrophotometrically at 595 nm.
(§3) All inhibitions were calculated using the formula of Chlumsky et al. below (Equation (1)):(1) A625(595)nm inhibition (%)=A625(595)nm (control) – A625(595)nm(natural substance)/A625(595)nm (control)× 100 where A625(595)nm (control) is the absorbance of bacterial suspension/biofilm itself, and A625(595)nm(natural substance) is the absorbance of the bacterial suspension/biofilm with the added natural substance (NAC, RLs, and UA).
When the minimum inhibitory concentration could not be determined, the MIC was established as >the highest tested concentration for NAC, RLs, and UA.

[1] = system: tested food-borne pathogens; test: MIC for bacterial growth, summary over all tested strains; assay type: cell-based; conditions: this study
Procedure: as §2, with “The difference of A625nm was considered as a measure of the ability of cells to grow in the presence of the tested substances.” left out, “nm. […]” for “nm.”

[2] = system: Haemophilus influenza, Pseudomonas aeruginosa, and Streptococcus pneumoniae; parameters: method as in PMID 29234086, PMID 31022884, PMID 27492531; conditions: clinical pathogens; cited from earlier work
[3] = system: Haemophilus influenza, Pseudomonas aeruginosa, and Streptococcus pneumoniae; parameters: method as in PMID 29234086, PMID 31022884, PMID 27492531; conditions: clinical pathogens; cited from earlier work; remark: listed apart in the source
S. aureus 816 = test: MIC for further growth of biofilm cells, preformed biofilm (A625nm); assay type: cell-based, Staphylococcus aureus; conditions: ≥80% inhibition, 18 h preformed biofilm, 20 h with substance
Procedure: as §1
The determination of MICs was performed according to Chlumsky et al.. […] To evaluate planktonic cells growth (MICPC80) and further growth of biofilm cells (MICBC80), the optical density of the content of the microtiter plates was measured spectrophotometrically at 625 nm before and after 24 h (for biofilm formation) of cultivation or before and after additional 20 h incubation with the tested compound (for preformed biofilm). […] To evaluate the inhibition of biofilm formation (MICBF80) and reduction in preformed biofilms (MICBR80), biomass was quantified using crystal violet staining, and its metabolic activity (MICBM80 and MICMPB80) was estimated by using the MTT (thiazyl tetrazolium bromide, Sigma-Aldrich, USA) reduction assay, both measured spectrophotometrically at 595 nm.
as §3, with “UA). […]” for “UA).”

Gram-negative bacteria [4] = test: Inhibition of planktonic growth, summary over strains; assay type: cell-based; conditions: at maximal tested concentration (RLs 1000 µg/mL, UA 31.3 µg/mL)
Procedure: as §2, with “The difference of A625nm was considered as a measure of the ability of cells to grow in the presence of the tested substances.” left out, “nm. […]” for “nm.”

Gram-negative bacteria [5] = test: Reduction of preformed biofilm, summary over strains; assay type: cell-based
Procedure: as §2, with “The difference of A625nm was considered as a measure of the ability of cells to grow in the presence of the tested substances.” left out, “nm. […]” for “nm.”

Gram-positive bacteria = test: as above; assay type: cell-based; conditions: Gram-positive strains other than L. monocytogenes 164
Procedure: as §2, with “The difference of A625nm was considered as a measure of the ability of cells to grow in the presence of the tested substances.” left out, “nm. […]” for “nm.”

[6] = system: preformed biofilms of Gram-negative bacteria; test: Inhibition of further growth of biofilm cells, summary over strains; assay type: cell-based
Procedure: as §2, with “The difference of A625nm was considered as a measure of the ability of cells to grow in the presence of the tested substances.” left out, “nm. […]” for “nm.”

S. aureus 1945^GFPuvr = system: S. aureus 1945^GFPuvr; parameters: method as in PMID 30151647; conditions: cited from earlier work
[7] = system: preformed biofilms of Gram-negative bacteria; test: Inhibition of metabolic activity of preformed biofilm, summary over strains; assay type: cell-based
Procedure: as §2, with “The difference of A625nm was considered as a measure of the ability of cells to grow in the presence of the tested substances.” left out, “nm. […]” for “nm.”

Gram-negative bacteria [8] = test: Inhibition of biofilm formation, summary over strains; assay type: cell-based; conditions: maximal tested concentration 31.3 µg/mL
Procedure: as §2, with “The difference of A625nm was considered as a measure of the ability of cells to grow in the presence of the tested substances.” left out, “nm. […]” for “nm.”

Gram-negative bacteria [9] = test: Inhibition of biofilm metabolic activity, summary over strains; assay type: cell-based; conditions: maximal tested concentration 31.3 µg/mL
Procedure: as §2, with “The difference of A625nm was considered as a measure of the ability of cells to grow in the presence of the tested substances.” left out, “nm. […]” for “nm.”

Row | SMILES | MICBR80 (L. monocytogenes 149) | MIC for bacterial growth, range over strains [1] | MIC needed for biofilm reduction [2] | MIC against bacterial growth [3] | MICBC80 (S. aureus 816) | maximal achieved inhibition (MICBR80 not reached), biofilm reduction (L. monocytogenes 149; preformed biofilm, within tested concentrations) | maximum inhibition of planktonic growth (MICPC80), range over strains (Gram-negative bacteria [4]) | maximum observed reduction of preformed biofilm (Gram-negative bacteria [5]) | maximum observed reduction of preformed biofilm, range over strains (Gram-positive bacteria) | maximum observed inhibition of further growth of biofilm cells [6] | minimal inhibition concentration, bacterial growth (S. aureus 1945^GFPuvr) | maximum observed inhibition of metabolic activity of preformed biofilm [7] | maximum inhibition (MICBF80), range over strains (Gram-negative bacteria [8]) | maximum inhibition (MICBM80), range over strains (Gram-negative bacteria [9])
1 | CC(=O)N[C@@H](CS)C(=O)O [NAC, N-Acetyl-L-cysteine] | 100,000 µg/mL | 3130–12,500 µg/mL | 2500–10,000 µg/mL | 500 to 2500 µg/mL | 3130 µg/mL |  |  |  |  |  |  |  |  | 
2 | CC(=O)c1c(O)c(C)c(O)c2c1OC1=CC(=O)C(C(C)=O)C(=O)C12C (single isomer, unassigned; (+)) [UA, (+)-usnic acid] | > 31.3 µg/mL |  |  |  |  | 69% | 20–42% | up to 30% | 35–72% | up to 61% | 32 µg/mL (≈ 92.9 µM) | up to 53% | 10–47% | 16–47%

Source: PMC8583417, “Evaluation of the Antimicrobial Efficacy of N-Acetyl-L-Cysteine, Rhamnolipids, and Usnic Acid—Novel Approaches to Fight Food-Borne Pathogens” (International Journal of Molecular Sciences, 2021)
